Source: US20070259329A1, “Anergy-inducing cellular composition” (BioVerde. Inc., priority 2006, published 2007)
Marks after values point to notes of the source that are not given here.

Biological target: T1, CD2 (Mus musculus, UniProt P08920)
T1 construct: endogenous in cells; host or cells: murine splenocytes (C57Bl/6)
T1 sequence (P08920 23-344): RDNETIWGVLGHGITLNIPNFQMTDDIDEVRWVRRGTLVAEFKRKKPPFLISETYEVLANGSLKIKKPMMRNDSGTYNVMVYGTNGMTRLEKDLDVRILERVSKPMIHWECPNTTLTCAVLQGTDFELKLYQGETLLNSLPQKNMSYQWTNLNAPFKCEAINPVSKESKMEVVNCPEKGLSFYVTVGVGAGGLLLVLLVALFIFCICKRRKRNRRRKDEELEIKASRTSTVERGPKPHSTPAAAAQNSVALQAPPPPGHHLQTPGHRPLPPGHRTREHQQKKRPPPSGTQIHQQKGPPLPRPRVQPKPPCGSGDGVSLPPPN
Experiment: Lymphocyte marker analysis by flow cytometry, CD2 epitope
Assay type: cell-based, murine (C57BI/6 splenocytes)
Conditions: for percent expression of cell surface molecule CD2: epitope-specific antibody, average of triplicate; for average percent suppression in epitope detection, CD2: relative to untreated control (0 ppm)
Experimental: To evaluate the action of EGCG in rendering cells to become anergy-inducing, murine splenocytes were used as a model system. Splenocytes were collected from BALB/c (H2 K^b) and C57BI/6 (H2 K^d) female mice of 8 to 13 weeks of age in HBSS (BioWhittaker) with 1% FCS. Cells were washed with HBSS (1% FCS) and treated with the media solution which contains RPMI 1640 (Sigma-Aldrich), 10 mM HEPES (Dojindo), and various concentrations of EGCG (98% purity, Roche) described in the examples.
Flow cytometric analyses of surface epitopes for the control and EGCG-treated splenocytes were performed using a series of fluorescence-labeled monoclonal anti-mouse CD and MHC and corresponding isotype control antibodies (eBioscience: CD2, CD36, CD4, CD11a, CD25, CD 28, CD 49d and CD80; Pharmingen: TCRαβ and MHC II). Murine splenocytes (C57BI/6) were treated with red blood cell lysis buffer (eBioscience) for 5 min prior to EGCG treatments. Immediately following EGCG-treatments, the splenocytes were washed with RPMI 1640 (10% FCS) and a staining buffer (eBioscience) at 4 degree C. Each splenocyte sample was reconstituted as a 50 μl aliquot in the same staining buffer and subject to antibody labeling. After washing twice the samples with the staining buffer, a minimum of 10,000 events per sample was collected on a Becton Dickinson FACScan flow cytometer.

(−)-epigallocatechin-3-o-gallate [EGCG]
percent expression of cell surface molecule CD2 (EGCg 100 ppm): 85.9% | average percent suppression in epitope detection, CD2 (EGCg 100 ppm): (9.5)** percent | percent expression of cell surface molecule CD2 (EGCg 200 ppm): 90.8% | average percent suppression in epitope detection, CD2 (EGCg 200 ppm): (4.3)** percent
